For one test, the target named is T1, His-PgaA (PgaA-32-807) (E. coli K-12, UniProt P69434 32-807).
T1 construct: also called His-PgaA-32-807; full-length PgaA; source: E. coli BL21: co-expressed with PgaB, in DDM extract of the lysate pellet (pull-down); expressed alone or with PgaB and purified (NiNTA, gel filtration, DDM); not shown: His6, N-terminal, kept
T1 sequence (looked up): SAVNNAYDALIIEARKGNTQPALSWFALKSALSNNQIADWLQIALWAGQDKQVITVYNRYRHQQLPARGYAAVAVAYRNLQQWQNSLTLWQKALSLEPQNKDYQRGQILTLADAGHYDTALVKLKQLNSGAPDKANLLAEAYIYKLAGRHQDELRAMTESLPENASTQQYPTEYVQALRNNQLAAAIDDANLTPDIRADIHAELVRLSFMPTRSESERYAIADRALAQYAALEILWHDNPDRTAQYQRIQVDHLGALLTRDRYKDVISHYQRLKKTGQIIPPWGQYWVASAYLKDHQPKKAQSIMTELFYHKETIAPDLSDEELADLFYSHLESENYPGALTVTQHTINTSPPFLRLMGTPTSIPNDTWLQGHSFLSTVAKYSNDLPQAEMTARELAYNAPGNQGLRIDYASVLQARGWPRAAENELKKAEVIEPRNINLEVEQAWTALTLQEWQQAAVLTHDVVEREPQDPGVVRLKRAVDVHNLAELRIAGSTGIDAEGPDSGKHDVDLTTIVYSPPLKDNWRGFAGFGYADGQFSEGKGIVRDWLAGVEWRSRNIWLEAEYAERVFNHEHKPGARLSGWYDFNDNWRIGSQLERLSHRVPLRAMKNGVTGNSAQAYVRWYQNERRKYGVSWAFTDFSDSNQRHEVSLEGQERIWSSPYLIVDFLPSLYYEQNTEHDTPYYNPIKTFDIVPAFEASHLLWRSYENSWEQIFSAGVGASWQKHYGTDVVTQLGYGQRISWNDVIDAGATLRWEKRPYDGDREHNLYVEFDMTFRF

The target in another test is T2, PgaA-220-367 (Escherichia coli, UniProt P69434).
T2 construct: His6 (thrombin cleavable, pET28) (N); made in house; host or cells: E. coli BL21 CodonPlus (DE3)
T2 sequence (P69434 220-367): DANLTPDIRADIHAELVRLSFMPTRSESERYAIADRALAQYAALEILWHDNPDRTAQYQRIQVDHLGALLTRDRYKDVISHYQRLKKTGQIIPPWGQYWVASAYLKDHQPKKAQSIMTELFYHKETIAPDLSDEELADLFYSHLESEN
The experiment in a line: Direct ESI-MS binding assay, PgaA-220-367. Also on record: species or system E. coli. Particulars: 25°C and pH 7, direct ESI-MS assay; for Kd: read-out: Kd, TPR region 220–367. How it is done: (§1) Solutions of PgaA220-367 (5.7 μM) and PgaA32-367 (11.6 μM) were used for binding assay. […] Binding measurements were carried out in positive ion mode using a Synapt G2S ESI-Q-IMS-TOF mass spectrometer (Waters, Manchester, UK) equipped with nanoflow ESI (nanoESI) source. NanoESI was performed by applying a voltage of ~1 kV to a platinum wire inserted into the nanoESI tip, which was produced from a borosilicate glass capillary (1.0 mm o.d., 0.68 mm i.d.) pulled to ~5 μm o.d. using a P−1000 micropipette puller (Sutter Instruments, Novato, CA). The source temperature and gas flow rate was 60°C and 2 mL/min, respectively. The Cone, Trap and Transfer voltages were 20 V, 3 V and 1 V, respectively. MassLynx software (version 4.1) was used for data acquisition and processing.
(§2) The Kd for protein (P)—ligand (L) binding was calculated from the abundance ratio of L-bound to free P ions (i.e., R), measured by ESI-MS: R = Ab(PL)/Ab(P) = [PL]/[P], Kd = [P][L]/[PL] = [L]0/R—[P]0/(R+1), where [P]0 and [L]0 are initial concentrations of protein and ligand, correspondingly. Non-specific protein-ligand binding was corrected as published.

In another test the target is T3, PgaA-32-367 (Escherichia coli, UniProt P69434).
T3 construct: His6 (thrombin cleavable, pET28) (N); made in house; host or cells: E. coli BL21 CodonPlus
T3 sequence (P69434 32-367): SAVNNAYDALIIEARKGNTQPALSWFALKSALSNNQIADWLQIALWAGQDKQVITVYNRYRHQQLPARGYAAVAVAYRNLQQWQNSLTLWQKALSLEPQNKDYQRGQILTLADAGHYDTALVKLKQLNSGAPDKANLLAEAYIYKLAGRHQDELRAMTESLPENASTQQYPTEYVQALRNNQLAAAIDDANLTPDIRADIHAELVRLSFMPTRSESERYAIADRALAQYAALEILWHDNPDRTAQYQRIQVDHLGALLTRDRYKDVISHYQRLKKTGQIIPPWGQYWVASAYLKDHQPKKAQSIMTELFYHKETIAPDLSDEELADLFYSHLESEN
The experiment in a line: Direct ESI-MS binding assay, PgaA-32-367. Also on record: species or system E. coli. Conditions: 25°C and pH 7, direct ESI-MS assay; for Kd: read-out: Kd, TPR region 32–367. The method, then: as §1, §2

Another test addresses PgaA-32-220. Description: ESI-MS binding test, PgaA-32-220. Also on record: species or system E. coli. Conditions: sample partially degraded. The method, then: PgaA32-220 was analyzed using the SolariX 15 T FT-ICR mass spectrometer (Bruker-Daltonics, Billerica, MA), equipped with a dynamically harmonized ParaCell and nanoESI source. […] The instrumental parameters for these measurements were: glass capillary exit voltage (200 V); source drying gas (N2, 4 L/min and 120°C); deflector plate (220 V). The RF amplitude of the ion-funnels was 300 V peak-to-peak, and the applied voltages were 150 V and 6 V for funnels 1 and 2, respectively. The voltage of skimmer 1 was 30 V and the skimmer 2 voltage was 5 V. Accumulation time in the hexapole collision cell was 0.7 s; the time-of-flight was 2 ms. The operating pressure in UHV region was ~5×10^−10 mbar. Data acquisition was performed using the FtmsControl software (version 2.2). The time-domain signal, consisting of the sum of 25 transients, containing 2M data points per transient, was subjected to one zero-fill prior to Fourier-transform.

Test [1] can be described thus: Fluorescamine de-acetylation assay. Type of test: biochemical. Conditions: 30 μM enzyme and 30 mM PNAG hexamer; fluorescamine readout. The method, then:
To determine whether the modulation of enzyme activity might be a common theme for the TPR domain across synthase-dependent systems, we assayed the deacetylase and glycoside hydrolase activities of PgaB in the presence and absence of PgaA. As we used co-expression to obtain the complexes, a SDS PAGE gel of the purified solutions of PgaA, PgaB and PgaA/B complexes was analyzed to ensure that equal quantities of the protein/protein complex were used (Fig 2A). Consistent with previous published studies, PgaA and PgaB appear to form a 1:1 complex. The deacetylase activity was assessed using a fluorescamine-based assay with fully acetylated PNAG hexamers as the substrate. As fluorescamine detects the presence of primary amines, which are generated during the deacetylation of the PNAG oligosaccharide, this assay provides a direct readout of the deacetylation activity of PgaB. To assess the glycoside hydrolase activity, we used a biofilm disruption assay, which has been used previously to characterize PgaB’s glycosidase activity. In this assay, biofilms of Staphylococcus epidermidis strain SE801 were grown in 96 well plates for 24 h, at which point PgaB was added. After a further 2 h, the reaction was quenched, plates washes and the amount of adherent biofilm remaining quantified using crystal violet staining. […]

Experimental findings from article PMC9384988, “The TPR domain of PgaA is a multifunctional scaffold that binds PNAG and modulates PgaB-dependent polymer processing” (PLoS Pathogens, 2022) are described below.

“PgaB-22-672 (soluble form of PgaB) (from UniProt P75906 22-672) (enzyme)”: the fluorescamine-based deacetylation assay with PNAG hexamer, concentration of GlcN produced (PgaA+B, individually purified and mixed) in the test with His-PgaA (PgaA-32-807) is 1290 µM.
With `CC(=O)N[C@H]1[C@H](O[C@H]2[C@@H](O)[C@@H](CO)O[C@@H](O[C@@H]([C@H](O)[C@@H](O)C=O)[C@H](O)CO)[C@@H]2O)O[C@H](CO)[C@@H](O)[C@@H]1O[C@@H]1O[C@H](CO)[C@H](O)[C@H](O)[C@H]1O[C@@H]1O[C@@H](C)[C@@H](O)[C@@H](O)[C@@H]1O` [LNF1, lacto-N-fucopentaose, reference compound], the “Kd, TPR region 220–367” value at PgaA-220-367 is given as “No binding”. Further, on PgaA-32-367, the “Kd, TPR region 32–367” value was “No binding”.
Turning to `CC(=O)N[C@H]1[C@H](OC[C@H]2O[C@@H](OC[C@H]3O[C@@H](OC[C@H]4O[C@@H](OC[C@H]5OC(O)[C@H](NC(C)=O)[C@@H](O)[C@@H]5O)[C@H](NC(C)=O)[C@@H](O)[C@@H]4O)[C@H](N)[C@@H](O)[C@@H]3O)[C@H](NC(C)=O)[C@@H](O)[C@@H]2O)O[C@H](CO)[C@@H](O)[C@@H]1O` (stereo partly shown) [(GlcNAc)2-GlcN-(GlcNAc)2], the dissociation constant (Kd) was 1300 µM on PgaA-220-367 and 2300 µM at PgaA-32-367. The “binding to TPR region 32–220” value on PgaA-32-220 was “No binding”.
For `CC(=O)N[C@H]1[C@H](OC[C@H]2O[C@@H](OC[C@H]3O[C@@H](OC[C@H]4O[C@@H](OC[C@H]5OC(O)[C@H](NC(C)=O)[C@@H](O)[C@@H]5O)[C@H](NC(C)=O)[C@@H](O)[C@@H]4O)[C@H](NC(C)=O)[C@@H](O)[C@@H]3O)[C@H](NC(C)=O)[C@@H](O)[C@@H]2O)O[C@H](CO)[C@@H](O)[C@@H]1O` (stereo partly shown), the Kd on PgaA-220-367 came to 1700 µM; on PgaA-32-367 it was 10000 µM. Moreover, at PgaA-32-220, the “binding to TPR region 32–220” value was “No binding”.

B1: PgaA: E. coli PgaA residues 32–807, TPR domain plus outer membrane porin (protein)
chain: SAVNNAYDALIIEARKGNTQPALSWFALKSALSNNQIADWLQIALWAGQDKQVITVYNRYRHQQLPARGYAAVAVAYRNLQQWQNSLTLWQKALSLEPQNKDYQRGQILTLADAGHYDTALVKLKQLNSGAPDKANLLAEAYIYKLAGRHQDELRAMTESLPENASTQQYPTEYVQALRNNQLAAAIDDANLTPDIRADIHAELVRLSFMPTRSESERYAIADRALAQYAALEILWHDNPDRTAQYQRIQVDHLGALLTRDRYKDVISHYQRLKKTGQIIPPWGQYWVASAYLKDHQPKKAQSIMTELFYHKETIAPDLSDEELADLFYSHLESENYPGALTVTQHTINTSPPFLRLMGTPTSIPNDTWLQGHSFLSTVAKYSNDLPQAEMTARELAYNAPGNQGLRIDYASVLQARGWPRAAENELKKAEVIEPRNINLEVEQAWTALTLQEWQQAAVLTHDVVEREPQDPGVVRLKRAVDVHNLAELRIAGSTGIDAEGPDSGKHDVDLTTIVYSPPLKDNWRGFAGFGYADGQFSEGKGIVRDWLAGVEWRSRNIWLEAEYAERVFNHEHKPGARLSGWYDFNDNWRIGSQLERLSHRVPLRAMKNGVTGNSAQAYVRWYQNERRKYGVSWAFTDFSDSNQRHEVSLEGQERIWSSPYLIVDFLPSLYYEQNTEHDTPYYNPIKTFDIVPAFEASHLLWRSYENSWEQIFSAGVGASWQKHYGTDVVTQLGYGQRISWNDVIDAGATLRWEKRPYDGDREHNLYVEFDMTFRF
modifications: left off: His6, N-terminal, kept
notes: E. coli PgaA residues 32–807, TPR domain plus outer membrane porin
As to B1, the “concentration of GlcN produced” value in test [1] stood at 73.8 ± 6.3 µM.

Usually Kd stands for a measure of binding affinity in units of concentration.
